Measurements from ChEMBL document CHEMBL5052833, “Ube2k modulators and methods for their use” (2021).
One block for each molecule: values may come before it. Active and inactive are the calls of the source. The calls are words filed in the database; no cut-off is given here.

Legend:
[1] = target: T1, Ubiquitin-conjugating enzyme E2 K (Homo sapiens) (UniProt P61086); test: Stabilization of UBE2K (unknown origin) at 1 to 1000 uM assessed as modulation of ubiquitin discharge measured by ELISA assay; conditions: dose 1-1000 µM
T1 sequence (whole entry): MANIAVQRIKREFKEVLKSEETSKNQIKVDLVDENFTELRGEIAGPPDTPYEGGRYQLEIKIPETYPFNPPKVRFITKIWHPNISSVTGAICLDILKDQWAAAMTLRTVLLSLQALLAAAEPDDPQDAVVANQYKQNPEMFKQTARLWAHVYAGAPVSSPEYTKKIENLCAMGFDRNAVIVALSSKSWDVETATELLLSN

[2] = target: T1, Ubiquitin-conjugating enzyme E2 K (Homo sapiens); test: Stabilization of mono-ubiquitinated UBE2K (unknown origin) at 500 uM assessed as decrease in poly-Ub measured by poly-ubiquitination assay
Homo sapiens [3] = species: Homo sapiens; test: Stabilization of mono-ubiquitinated UBE2D4 (unknown origin) at 500 uM assessed as decrease in poly-Ub measured by poly-ubiquitination assay
[4] = target: Ubiquitin-conjugating enzyme E2 E1 (Homo sapiens) (UniProt P51965); test: Stabilization of mono-ubiquitinated UBE2E1 (unknown origin) at 500 uM assessed as decrease in poly-Ub measured by poly-ubiquitination assay
Homo sapiens [5] = species: Homo sapiens; test: Stabilization of mono-ubiquitinated UBE2S (unknown origin) at 500 uM assessed as decrease in poly-Ub measured by poly-ubiquitination assay
Homo sapiens [6] = species: Homo sapiens; test: Stabilization of mono-ubiquitinated UBE2W (unknown origin) at 500 uM assessed as decrease in poly-Ub measured by poly-ubiquitination assay
Homo sapiens [7] = species: Homo sapiens; test: Stabilization of mono-ubiquitinated UBE2Q2 (unknown origin) at 500 uM assessed as decrease in poly-Ub measured by poly-ubiquitination assay
[8] = target: T1, Ubiquitin-conjugating enzyme E2 K (Homo sapiens); test: Stabilization of mono-ubiquitinated UBE2K (unknown origin) at 0.25 to 50 uM assessed as decrease in poly-Ub measured by poly-ubiquitination assay; conditions: dose 0.25-50 µM
MV4-11 [9] = test: Antitumor activity against human MV4-11 cells xenografted nude mouse assessed as tumor growth inhibition at 150 mg/kg, po administered twice a day for 24 days; assay type: functional; conditions: MV4-11, po, 576 h, time 24 day, read-out: TGI
MV4-11 [10] = test: Antitumor activity against human MV4-11 cells xenografted nude mouse assessed as tumor growth inhibition at 75 mg/kg, po administered twice a day for 24 days; assay type: functional; conditions: MV4-11, po, 576 h, time 24 day, read-out: TGI
[11] = target: T1, Ubiquitin-conjugating enzyme E2 K (Homo sapiens); test: Stabilization of mono-ubiquitinated UBE2K (unknown origin) at 0.4 to 100 uM assessed as decrease in poly-Ub measured by poly-ubiquitination assay; conditions: dose 0.4-100 µM
[12] = target: T1, Ubiquitin-conjugating enzyme E2 K (Homo sapiens); test: Stabilization of mono-ubiquitinated UBE2K (unknown origin) at 16 to 100 uM assessed as decrease in poly-Ub measured by poly-ubiquitination assay; conditions: dose 16-100 µM
[13] = target: T1, Ubiquitin-conjugating enzyme E2 K (Homo sapiens); test: Stabilization of mono-ubiquitinated UBE2K (unknown origin) at 0.25 to 25 uM assessed as decrease in poly-Ub measured by poly-ubiquitination assay; conditions: dose 0.25-25 µM
K562 [14] = test: Antitumor activity against human K562 cells xenografted female SCID Bg mouse assessed as tumor growth inhibition at 25 mg/kg, po administered twice a day for 12 consecutive days and measured on day 10; assay type: functional; conditions: 240 h, time 10 day, read-out: TGI
K562 [15] = test: Antitumor activity against human K562 cells xenografted female SCID Bg mouse assessed as tumor growth inhibition at 25 mg/kg, po administered twice a day for 12 consecutive days and measured on day 12; assay type: functional; conditions: 288 h, time 12 day, read-out: TGI

Ubiquitin-conjugating enzyme E2 E1 (Homo sapiens), sequence (P51965 whole entry): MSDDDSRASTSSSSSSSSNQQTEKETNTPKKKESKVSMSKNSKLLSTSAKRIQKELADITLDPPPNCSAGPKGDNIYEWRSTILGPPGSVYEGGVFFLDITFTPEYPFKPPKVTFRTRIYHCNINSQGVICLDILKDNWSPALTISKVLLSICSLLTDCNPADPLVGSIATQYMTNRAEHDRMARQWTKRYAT

Compound: O=C(NCc1cc(-c2cccs2)[nH]n1)c1ccccc1OC(F)(F)F
Activity [8]: Active

Compound: COc1ccc(F)cc1-c1nc(CNC(=O)c2cccc3c2OC(F)(F)O3)n[nH]1
Activity [1]: Active
inhibition in vivo at 150 mg/kg (MV4-11 [9]): 37%
inhibition in vivo at 75 mg/kg (MV4-11 [10]): 43%

Compound: COc1ccccc1-c1cc(CNC(=O)c2ccccc2OC(F)(F)F)n[nH]1
Activity [11]: Active
Activity [2]: Active
Activity [1]: Active
Activity (Homo sapiens [3]): inactive
Activity [4]: inactive
Activity (Homo sapiens [5]): inactive
Activity (Homo sapiens [6]): inactive
Activity (Homo sapiens [7]): inactive

Compound: O=C(NCc1cc(-c2cccs2)[nH]n1)c1ccccc1C(F)(F)F
Activity [12]: Active

Compound: O=C(NCc1cc(-c2cccs2)[nH]n1)c1ccccc1OC(F)F
Activity [13]: Active

Compound: O=C(NCc1cc(-c2ccccc2O)[nH]n1)c1ccccc1OC(F)(F)F
Activity [11]: Active
Activity [1]: Active

Compound: COc1ccc(F)cc1-c1nc(CNC(=O)c2cc(F)ccc2OC(F)(F)F)n[nH]1
inhibition in vivo at 25 mg/kg (K562 [14]): 73.6%
inhibition in vivo at 25 mg/kg (K562 [15]): 86.3%

Further lines, results first:

Activity [1]: Active
Compound: COc1ccccc1-c1nc(CNC(=O)c2cc(C#N)ccc2OC(F)F)n[nH]1

Activity [2]: Active
Activity (Homo sapiens [3]): inactive
Activity [4]: inactive
Activity (Homo sapiens [5]): inactive
Activity (Homo sapiens [6]): inactive
Activity (Homo sapiens [7]): inactive
Compound: COc1ccc(F)cc1-c1nc(CNC(=O)c2ccccc2OC(F)F)n[nH]1

Activity [11]: Active
Activity [2]: Active
Activity [1]: Active
Activity (Homo sapiens [3]): inactive
Activity [4]: inactive
Activity (Homo sapiens [5]): inactive
Activity (Homo sapiens [6]): inactive
Activity (Homo sapiens [7]): inactive
Compound: COc1ccccc1-c1nc(CNC(=O)c2ccccc2OC(F)F)n[nH]1
